# Experimental data reported in PubChem BioAssay (NCI).
#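 Values below derive from 48-hour exposures of cells grown in 96-well plates, with endpoints linearly interpolated between the two concentrations bracketing the appropriate inhibition level. TGI: total growth inhibition.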
# Legend:
# Assay in all cases: NCI tumour cell line growth inhibition, 48 h
# OVCAR-5 ovarian = system: OVCAR-5 ovarian
# 786-0 renal = system: 786-0 renal
# HCT-116 colon = system: HCT-116 colon
# NCI-H226 lung = system: NCI-H226 lung
# PC-3 prostate = system: PC-3 prostate
# SF-268 CNS = system: SF-268 CNS
# HS 578T breast = system: HS 578T breast
# HT29 colon = system: HT29 colon
# SK-OV-3 ovarian = system: SK-OV-3 ovarian
# U251 CNS = system: U251 CNS
# EKVX NSCLC = system: EKVX NSCLC
# UACC-257 melanoma = system: UACC-257 melanoma
Structure (SMILES),TGI (OVCAR-5 ovarian),TGI (786-0 renal),TGI (HCT-116 colon),TGI (NCI-H226 lung),TGI (PC-3 prostate),TGI (SF-268 CNS),TGI (HS 578T breast),TGI (HT29 colon),TGI (SK-OV-3 ovarian),TGI (U251 CNS),TGI (EKVX NSCLC),TGI (UACC-257 melanoma)
O=C1/C(=C/c2ccc(Cl)cc2)NC(=S)N1CN1CCCCC1,> 100 µM,> 100 µM,> 100 µM,> 100 µM,> 100 µM,78.8 µM,62 µM,29.3 µM,> 100 µM,> 100 µM,> 100 µM,–
CCOC(=O)n1c(=O)nc2c3c(ncn21)Oc1c(c(-c2ccccc2)nn1-c1ccccc1)C3c1ccc(Cl)cc1 (centres undefined),3.53 µM,2.85 µM,2.82 µM,2.99 µM,3.1 µM,2.92 µM,3.37 µM,3.12 µM,6.47 µM,3.06 µM,–,3.42 µM
COc1ccc2c(c1)SC1=Nc3sc4cc(OC)ccc4[n+]3CN12,> 100 µM,82.7 µM,> 100 µM,–,> 100 µM,28.5 µM,> 100 µM,56.3 µM,> 100 µM,63.6 µM,> 100 µM,> 100 µM
COC(=O)C#CC1(O)C=CC(=O)C=C1,10.4 µM,1.82 µM,–,20.8 µM,5.76 µM,3.18 µM,16.1 µM,13.5 µM,> 100 µM,–,24.5 µM,3.64 µM
CCOC(=O)c1c2ccccc2n2c(=O)n(-c3ccccc3)nnc12,> 100 µM,> 100 µM,> 100 µM,> 100 µM,> 100 µM,> 100 µM,> 100 µM,–,> 85 µM,> 100 µM,> 100 µM,> 100 µM
COc1ccc(C2OC2C(=O)C23CC4CC(CC(C4)C2)C3)cc1 (centres undefined),> 100 µM,> 100 µM,> 100 µM,> 100 µM,> 100 µM,> 100 µM,50.4 µM,> 100 µM,–,> 100 µM,> 100 µM,> 100 µM
Nc1ccc(Oc2ccc(C3(c4ccc(Oc5ccc(N)c(O)c5)cc4)C4CC5CC(C4)CC3C5)cc2)cc1O,5.75 µM,–,–,3.62 µM,3.18 µM,–,5.32 µM,4.4 µM,7.1 µM,–,6.16 µM,5.91 µM
CCc1c(N=[N+]=[N-])c2ccccc2oc1=O,–,> 100 µM,> 100 µM,> 100 µM,> 100 µM,> 100 µM,> 100 µM,> 100 µM,> 100 µM,> 100 µM,> 100 µM,> 100 µM
O=C1C/C(=C\c2ccccc2)C(=O)c2ccccc2N1,40.9 µM,34.5 µM,29.3 µM,80.4 µM,50.1 µM,98.4 µM,> 100 µM,36.5 µM,68 µM,–,48.5 µM,48.6 µM
CC(C)OP(=O)(OC(C)C)C(=Nc1ccc(N=C(NNc2ccc([N+](=O)[O-])cc2)P(=O)(OC(C)C)OC(C)C)cc1)NNc1ccc([N+](=O)[O-])cc1,> 100 µM,–,> 100 µM,> 100 µM,–,> 100 µM,–,–,–,> 100 µM,> 100 µM,> 100 µM
CSc1ccc(/C=C2\N=C(c3ccccc3)N(NC(=O)c3c(Cl)c(Cl)c(Cl)c(Cl)c3-c3nc4ccccc4[nH]3)C2=O)cc1,> 100 µM,> 100 µM,83.3 µM,> 100 µM,> 100 µM,> 100 µM,> 100 µM,> 100 µM,> 100 µM,–,> 100 µM,> 100 µM
CCCCCCCC(=O)N1C2CC3CCC2(CS1(=O)=O)C3(C)C (centres undefined),> 100 µM,31.7 µM,> 100 µM,–,69.1 µM,> 100 µM,> 100 µM,> 10 µM,> 100 µM,69.9 µM,> 100 µM,68.6 µM
CC(C)=CCN1c2ccccc2[C@@]2(CC=C(C)C)CCN(C)[C@@H]12,> 100 µM,53 µM,73.2 µM,> 100 µM,> 100 µM,> 100 µM,45.8 µM,90.4 µM,77.1 µM,40.5 µM,64.3 µM,–
COC(=O)c1c(O)ccc2c1c1c(n2CCc2ccccc2)C(=O)c2ccccc2C1,–,37.9 µM,35.8 µM,40 µM,50.6 µM,41 µM,> 100 µM,70.4 µM,64.2 µM,80.3 µM,–,44 µM
CCOC(=O)/C(C#N)=c1/s/c(=C(\O)N/N=C/c2ccc(OC)cc2)c(=N)n1-c1ccccc1,> 100 µM,–,> 100 µM,> 100 µM,–,> 100 µM,–,> 100 µM,> 100 µM,> 100 µM,–,> 100 µM
CC(=O)OC(C(=O)NNC(=O)OC(C)(C)C)c1ccccc1 (centres undefined),> 100 µM,> 100 µM,–,> 100 µM,> 100 µM,> 100 µM,> 100 µM,> 100 µM,> 100 µM,> 100 µM,> 100 µM,–
N#CC(C#N)=CNC(=S)Nc1ccc(S(=O)(=O)Nc2nccs2)cc1,> 100 µM,> 100 µM,> 100 µM,> 100 µM,–,> 100 µM,–,> 100 µM,> 100 µM,> 100 µM,> 100 µM,> 100 µM
NC(Cc1c2ccccc2cc2ccccc12)C(=O)O (centres undefined),> 100 µM,> 100 µM,> 100 µM,> 100 µM,> 100 µM,> 100 µM,–,> 100 µM,> 100 µM,> 100 µM,> 100 µM,> 100 µM
CC(=O)Nc1ccc2c3c(cc(O)c2c1)N(C(=O)CCCCCCC(=O)Nc1ccc2c4c(cc(O)c2c1)N(C(=O)OC(C)(C)C)CC4CCl)CC3CCl (centres undefined),0.663 µM,5.55 µM,11.9 µM,0.463 µM,–,1.67 µM,–,–,23.9 µM,11 µM,1.08 µM,0.439 µM
O=C(O)c1ccc2nc(-c3ccccn3)c(-c3ccccn3)nc2c1,–,> 100 µM,> 100 µM,> 100 µM,> 100 µM,> 100 µM,> 100 µM,> 100 µM,> 100 µM,> 100 µM,> 100 µM,> 100 µM
Nc1cc2c(C3OC(CO)C(O)C3O)[nH]nc2c(=S)[nH]1 (centres undefined),> 100 µM,> 100 µM,> 100 µM,> 100 µM,–,> 100 µM,–,> 100 µM,> 100 µM,> 100 µM,> 100 µM,> 100 µM
